Laboratory results reported in the NIST ThermoML archive (doi:10.1016/j.fluid.2007.06.008).
Numbers after ± are expanded uncertainties.

Tests used:
[1] = Liquid; for mass density: 101.33 kPa; for Normal boiling temperature: Ebulliometric method (Recirculating still)
[2] = refractive index (Na D-line) (dimensionless); conditions: 298.15 K; 101.33 kPa; Liquid; Standard Abbe refractometry

Compound | mass density ([1]; 298.15 K) [kg/m3] | Normal boiling temperature [1] [°C] | refractive index [2] | mass density ([1]; 303.15 K) [kg/m3]
CCC(C)CC [3-methylpentane] | 659.62 ± 1.4 | 63.2 ± 0.1 | 1.3744 ± 0.0005 | 
CC(C)(C)O [2-methylpropan-2-ol] |  | 82.18 ± 0.1 | 1.3851 ± 0.0005 | 775.4 ± 0.66
CC1CCCCC1 [methylcyclohexane] | 764.92 ± 1.1 | 100.81 ± 0.1 | 1.4208 ± 0.0005 | 
CCO [ethanol] | 785.04 ± 0.5 | 78.26 ± 0.1 | 1.3598 ± 0.0007 | 
